Among the data in PMC13230610, “Fast analysis and engineering of protein function by microbe-independent deep assembly and screening” (Molecular Systems Biology, 2026) are Kd values, retold here.

pKd: −log10 of the molar value.

The test system of experiment [1] is T1, ACh-NeuBI0.5 (engineered OpuBC fused with SmBiT/LgBiT and mScarlet-I).
T1 construct: mScarlet-I at N-terminus of OpuBC (30-106)-linker 1 (Phe)-SmBiT (∆C3)-LgBiT-OpuBC (107-305)
The experiment in a line: bioluminescence dose-response of indicator expressed on HEK293A cells. The experiment is classed as cell-based, Homo sapiens (HEK293A cells).

Experiment [2] deals with T2, ACh-NeuBI1b (ACh-NeuBI0.5 QAE; engineered OpuBC fused with SmBiT/LgBiT and mScarlet-I).
T2 construct: ACh-NeuBI0.5 QAE
The experiment in a line: bioluminescence dose-response in HEK293A cells; also purified protein responded. Type of experiment: cell-based, Homo sapiens (HEK293A cells).

Usually pKd stands for −log10 of the Kd, conventionally taken in molar units. A higher pKd goes with a low Kd.

In the case of `CC(=O)OCC[N+](C)(C)C` [acetylcholine], the figures for the negative-log Kd (pKd) in experiment [1] and in experiment [2] were 3.05 and 3.73, respectively.

On to `C[N+](C)(C)CCO` [choline], for which, in experiment [1], the pKd is 1.96.
